Reference: ChEMBL document CHEMBL3769303, “Discovery of membrane active benzimidazole quinolones-based topoisomerase inhibitors as potential DNA-binding antimicrobial agents” (Eur J Med Chem, 2016)
In brackets after ≈: the same amount, converted by molar mass.

Test system: Pseudomonas aeruginosa
Experiment: Antibacterial activity against Pseudomonas aeruginosa ATCC 27853 by micro broth dilution method
Format: functional
Settings: not given

Structure (SMILES) | MIC [µg/mL]
O=C(O)c1cn(C2CC2)c2cc(N3CCN(Cc4nc5ccc(F)cc5[nH]4)CC3)c(F)cc2c1=O | 2 (≈ 4.17 µM)
COC(=O)c1cn(C2CC2)c2cc(N3CCN(/C=N\c4nc5ccccc5[nH]4)CC3)c(F)cc2c1=O | 2 (≈ 4.09 µM)
CCn1c(CN2CCN(c3cc4c(cc3F)c(=O)c(C(=O)O)cn4C3CC3)CC2)nc2ccccc21 | 2 (≈ 4.09 µM)
CCn1cc(C(=O)OC)c(=O)c2cc(F)c(N3CCN(/C=N\c4nc5ccccc5[nH]4)CC3)cc21 | 8 (≈ 16.8 µM)

Test system: Cyberlindnera jadinii
Experiment: Antifungal activity against Candida utilis ATCC 9950 after 24 hrs by micro broth dilution method
Format: functional
Settings: Williopsis jadinii, ATCC 9950, 24 h

Structure (SMILES) | MIC80 [µg/mL]
O=C(O)c1cn(C2CC2)c2cc(N3CCN(Cc4nc5ccc(F)cc5[nH]4)CC3)c(F)cc2c1=O | 1 (≈ 2.09 µM)
COC(=O)c1cn(C2CC2)c2cc(N3CCN(/C=N\c4nc5ccccc5[nH]4)CC3)c(F)cc2c1=O | 8 (≈ 16.4 µM)
CCn1c(CN2CCN(c3cc4c(cc3F)c(=O)c(C(=O)O)cn4C3CC3)CC2)nc2ccccc21 | 2 (≈ 4.09 µM)
CCn1cc(C(=O)OC)c(=O)c2cc(F)c(N3CCN(/C=N\c4nc5ccccc5[nH]4)CC3)cc21 | 64 (≈ 134 µM)

Test system: Staphylococcus aureus
Experiment: Antibacterial activity against Staphylococcus aureus ATCC 25923 by micro broth dilution method
Format: functional
Settings: not given

Structure (SMILES) | MIC [µg/mL]
O=C(O)c1cn(C2CC2)c2cc(N3CCN(Cc4nc5ccc(F)cc5[nH]4)CC3)c(F)cc2c1=O | 4 (≈ 8.34 µM)
COC(=O)c1cn(C2CC2)c2cc(N3CCN(/C=N\c4nc5ccccc5[nH]4)CC3)c(F)cc2c1=O | 32 (≈ 65.5 µM)
CCn1c(CN2CCN(c3cc4c(cc3F)c(=O)c(C(=O)O)cn4C3CC3)CC2)nc2ccccc21 | 256 (≈ 523 µM)
CCn1cc(C(=O)OC)c(=O)c2cc(F)c(N3CCN(/C=N\c4nc5ccccc5[nH]4)CC3)cc21 | 64 (≈ 134 µM)

Test system: Aspergillus flavus
Experiment: Antifungal activity against Aspergillus flavus ATCC 204304 after 24 hrs by micro broth dilution method
Format: functional
Settings: ATCC 204304, 24 h

Structure (SMILES) | MIC80 [µg/mL]
O=C(O)c1cn(C2CC2)c2cc(N3CCN(Cc4nc5ccc(F)cc5[nH]4)CC3)c(F)cc2c1=O | 1 (≈ 2.09 µM)
COC(=O)c1cn(C2CC2)c2cc(N3CCN(/C=N\c4nc5ccccc5[nH]4)CC3)c(F)cc2c1=O | 4 (≈ 8.19 µM)
CCn1c(CN2CCN(c3cc4c(cc3F)c(=O)c(C(=O)O)cn4C3CC3)CC2)nc2ccccc21 | 4 (≈ 8.17 µM)
CCn1cc(C(=O)OC)c(=O)c2cc(F)c(N3CCN(/C=N\c4nc5ccccc5[nH]4)CC3)cc21 | 64 (≈ 134 µM)

Test system: not listed separately
Experiment: Antibacterial activity against Bacillus proteus ATCC 13315 by micro broth dilution method
Format: functional
Settings: not given

Structure (SMILES) | MIC [µg/mL]
O=C(O)c1cn(C2CC2)c2cc(N3CCN(Cc4nc5ccc(F)cc5[nH]4)CC3)c(F)cc2c1=O | 1 (≈ 2.09 µM)
COC(=O)c1cn(C2CC2)c2cc(N3CCN(/C=N\c4nc5ccccc5[nH]4)CC3)c(F)cc2c1=O | 4 (≈ 8.19 µM)
CCn1c(CN2CCN(c3cc4c(cc3F)c(=O)c(C(=O)O)cn4C3CC3)CC2)nc2ccccc21 | 0.5 (≈ 1.02 µM)
CCn1cc(C(=O)OC)c(=O)c2cc(F)c(N3CCN(/C=N\c4nc5ccccc5[nH]4)CC3)cc21 | 32 (≈ 67.2 µM)

Test system: Saccharomyces cerevisiae
Experiment: Antifungal activity against Saccharomyces cerevisiae ATCC 9763 after 24 hrs by micro broth dilution method
Format: functional
Settings: ATCC 9763, 24 h

Structure (SMILES) | MIC80 [µg/mL]
O=C(O)c1cn(C2CC2)c2cc(N3CCN(Cc4nc5ccc(F)cc5[nH]4)CC3)c(F)cc2c1=O | 0.5 (≈ 1.04 µM)
COC(=O)c1cn(C2CC2)c2cc(N3CCN(/C=N\c4nc5ccccc5[nH]4)CC3)c(F)cc2c1=O | 2 (≈ 4.09 µM)
CCn1c(CN2CCN(c3cc4c(cc3F)c(=O)c(C(=O)O)cn4C3CC3)CC2)nc2ccccc21 | 128 (≈ 261 µM)
CCn1cc(C(=O)OC)c(=O)c2cc(F)c(N3CCN(/C=N\c4nc5ccccc5[nH]4)CC3)cc21 | 32 (≈ 67.2 µM)

Test system: Escherichia coli
Experiment: Antibacterial activity against Escherichia coli JM109 by micro broth dilution method
Format: functional
Settings: not given

Structure (SMILES) | MIC [µg/mL]
O=C(O)c1cn(C2CC2)c2cc(N3CCN(Cc4nc5ccc(F)cc5[nH]4)CC3)c(F)cc2c1=O | 4 (≈ 8.34 µM)
COC(=O)c1cn(C2CC2)c2cc(N3CCN(/C=N\c4nc5ccccc5[nH]4)CC3)c(F)cc2c1=O | 8 (≈ 16.4 µM)
CCn1c(CN2CCN(c3cc4c(cc3F)c(=O)c(C(=O)O)cn4C3CC3)CC2)nc2ccccc21 | 128 (≈ 261 µM)
CCn1cc(C(=O)OC)c(=O)c2cc(F)c(N3CCN(/C=N\c4nc5ccccc5[nH]4)CC3)cc21 | 64 (≈ 134 µM)

Test system: Candida albicans
Experiment: Antifungal activity against Candida albicans ATCC 10231 after 24 hrs by micro broth dilution method
Format: functional
Settings: ATCC 10231, 24 h

Structure (SMILES) | MIC80 [µg/mL]
O=C(O)c1cn(C2CC2)c2cc(N3CCN(Cc4nc5ccc(F)cc5[nH]4)CC3)c(F)cc2c1=O | 8 (≈ 16.7 µM)
COC(=O)c1cn(C2CC2)c2cc(N3CCN(/C=N\c4nc5ccccc5[nH]4)CC3)c(F)cc2c1=O | 32 (≈ 65.5 µM)
CCn1c(CN2CCN(c3cc4c(cc3F)c(=O)c(C(=O)O)cn4C3CC3)CC2)nc2ccccc21 | 2 (≈ 4.09 µM)
CCn1cc(C(=O)OC)c(=O)c2cc(F)c(N3CCN(/C=N\c4nc5ccccc5[nH]4)CC3)cc21 | 64 (≈ 134 µM)

Test system: Escherichia coli
Experiment: Antibacterial activity against Escherichia coli DH52 by micro broth dilution method
Format: functional
Settings: not given

Structure (SMILES) | MIC [µg/mL]
O=C(O)c1cn(C2CC2)c2cc(N3CCN(Cc4nc5ccc(F)cc5[nH]4)CC3)c(F)cc2c1=O | 1 (≈ 2.09 µM)
COC(=O)c1cn(C2CC2)c2cc(N3CCN(/C=N\c4nc5ccccc5[nH]4)CC3)c(F)cc2c1=O | 8 (≈ 16.4 µM)
CCn1c(CN2CCN(c3cc4c(cc3F)c(=O)c(C(=O)O)cn4C3CC3)CC2)nc2ccccc21 | 2 (≈ 4.09 µM)
CCn1cc(C(=O)OC)c(=O)c2cc(F)c(N3CCN(/C=N\c4nc5ccccc5[nH]4)CC3)cc21 | 32 (≈ 67.2 µM)

Test system: Salmonella enterica
Experiment: Antibacterial activity against Salmonella enterica ATCC 14028 by micro broth dilution method
Format: functional
Settings: not given

Structure (SMILES) | MIC [µg/mL]
O=C(O)c1cn(C2CC2)c2cc(N3CCN(Cc4nc5ccc(F)cc5[nH]4)CC3)c(F)cc2c1=O | 1 (≈ 2.09 µM)
COC(=O)c1cn(C2CC2)c2cc(N3CCN(/C=N\c4nc5ccccc5[nH]4)CC3)c(F)cc2c1=O | 4 (≈ 8.19 µM)
CCn1c(CN2CCN(c3cc4c(cc3F)c(=O)c(C(=O)O)cn4C3CC3)CC2)nc2ccccc21 | 0.5 (≈ 1.02 µM)
CCn1cc(C(=O)OC)c(=O)c2cc(F)c(N3CCN(/C=N\c4nc5ccccc5[nH]4)CC3)cc21 | 16 (≈ 33.6 µM)

Test system: Bacillus spizizenii
Experiment: Antibacterial activity against Bacillus subtilis ATCC 6633 by micro broth dilution method
Format: functional
Settings: not given

Structure (SMILES) | MIC [µg/mL]
O=C(O)c1cn(C2CC2)c2cc(N3CCN(Cc4nc5ccc(F)cc5[nH]4)CC3)c(F)cc2c1=O | 0.5 (≈ 1.04 µM)
COC(=O)c1cn(C2CC2)c2cc(N3CCN(/C=N\c4nc5ccccc5[nH]4)CC3)c(F)cc2c1=O | 2 (≈ 4.09 µM)
CCn1c(CN2CCN(c3cc4c(cc3F)c(=O)c(C(=O)O)cn4C3CC3)CC2)nc2ccccc21 | 0.5 (≈ 1.02 µM)
CCn1cc(C(=O)OC)c(=O)c2cc(F)c(N3CCN(/C=N\c4nc5ccccc5[nH]4)CC3)cc21 | 4 (≈ 8.39 µM)

Test system: Micrococcus luteus
Experiment: Antibacterial activity against Micrococcus luteus ATCC 4698 by micro broth dilution method
Format: functional
Settings: NCTC 2665

Structure (SMILES) | MIC [µg/mL]
O=C(O)c1cn(C2CC2)c2cc(N3CCN(Cc4nc5ccc(F)cc5[nH]4)CC3)c(F)cc2c1=O | 2 (≈ 4.17 µM)
COC(=O)c1cn(C2CC2)c2cc(N3CCN(/C=N\c4nc5ccccc5[nH]4)CC3)c(F)cc2c1=O | 4 (≈ 8.19 µM)
CCn1c(CN2CCN(c3cc4c(cc3F)c(=O)c(C(=O)O)cn4C3CC3)CC2)nc2ccccc21 | 2 (≈ 4.09 µM)
CCn1cc(C(=O)OC)c(=O)c2cc(F)c(N3CCN(/C=N\c4nc5ccccc5[nH]4)CC3)cc21 | 32 (≈ 67.2 µM)

Test system: not listed separately
Experiment: Antifungal activity against Candida mycoderma ATCC 9888 after 24 hrs by micro broth dilution method
Format: functional
Settings: Candida vini

Structure (SMILES) | MIC80 [µg/mL]
O=C(O)c1cn(C2CC2)c2cc(N3CCN(Cc4nc5ccc(F)cc5[nH]4)CC3)c(F)cc2c1=O | 2 (≈ 4.17 µM)
COC(=O)c1cn(C2CC2)c2cc(N3CCN(/C=N\c4nc5ccccc5[nH]4)CC3)c(F)cc2c1=O | 16 (≈ 32.8 µM)
CCn1c(CN2CCN(c3cc4c(cc3F)c(=O)c(C(=O)O)cn4C3CC3)CC2)nc2ccccc21 | 2 (≈ 4.09 µM)
CCn1cc(C(=O)OC)c(=O)c2cc(F)c(N3CCN(/C=N\c4nc5ccccc5[nH]4)CC3)cc21 | 128 (≈ 269 µM)

Test system: Shigella dysenteriae
Experiment: Antibacterial activity against Shigella dysenteriae by micro broth dilution method
Format: functional
Settings: not given

Structure (SMILES) | MIC [µg/mL]
O=C(O)c1cn(C2CC2)c2cc(N3CCN(Cc4nc5ccc(F)cc5[nH]4)CC3)c(F)cc2c1=O | 2 (≈ 4.17 µM)
COC(=O)c1cn(C2CC2)c2cc(N3CCN(/C=N\c4nc5ccccc5[nH]4)CC3)c(F)cc2c1=O | 8 (≈ 16.4 µM)
CCn1c(CN2CCN(c3cc4c(cc3F)c(=O)c(C(=O)O)cn4C3CC3)CC2)nc2ccccc21 | 8 (≈ 16.3 µM)
CCn1cc(C(=O)OC)c(=O)c2cc(F)c(N3CCN(/C=N\c4nc5ccccc5[nH]4)CC3)cc21 | 64 (≈ 134 µM)

Test system: Staphylococcus aureus
Experiment: Antibacterial activity against methicillin-resistant Staphylococcus aureus N315 by micro broth dilution method
Format: functional
Settings: not given

Structure (SMILES) | MIC [µg/mL]
O=C(O)c1cn(C2CC2)c2cc(N3CCN(Cc4nc5ccc(F)cc5[nH]4)CC3)c(F)cc2c1=O | 2 (≈ 4.17 µM)
COC(=O)c1cn(C2CC2)c2cc(N3CCN(/C=N\c4nc5ccccc5[nH]4)CC3)c(F)cc2c1=O | 64 (≈ 131 µM)
CCn1c(CN2CCN(c3cc4c(cc3F)c(=O)c(C(=O)O)cn4C3CC3)CC2)nc2ccccc21 | 128 (≈ 261 µM)
CCn1cc(C(=O)OC)c(=O)c2cc(F)c(N3CCN(/C=N\c4nc5ccccc5[nH]4)CC3)cc21 | 128 (≈ 269 µM)
